Where “and” joins values, the source holds several entries; their conditions need not be identical. Equal entries are not always repeated. Entries after “also recorded” stand apart in the source; their conditions may differ. Where a SMILES comes first, the peptide text is derived from it. The star is where a group is joined. Benzoyl(4-OMe) = COc1ccc(C(=O)*)cc1
Tested on: SW480 cells
Assay: Wound-healing migration assay, SW480
Type: cell-based
Procedure: Cells were seeded in 12-well plates at a density of 4 × 10^5 cells per well and grown until 90% confluence in DMEM supplemented with 10% FBS. The monolayers were scratched with a sterile pipette tip (QSP; T104TLS-Q). The cells were washed with 1× PBS and then cultured in culture medium containing 1% FBS and peptides or peptidomimetics. The corresponding photos were captured at the time of scratching and after 24–72 h.

Compound: COc1ccc(C(=O)N[C@@H](C)C(=O)NCC(=O)N[C@@H](CCC(=O)O)C(=O)N[C@@H](CO)C(=O)N[C@@H](CC(C)C)C(=O)N[C@@H](Cc2ccc(O)cc2)C(=O)N[C@@H](CCC(=O)O)C(N)=O)cc1 [MAI-516] ({Benzoyl(4-OMe)}-AGESLYE-NH2)
- Relative migration ability (single replicates) (FigS10c, relative to DMSO): 0.86 and 1.12 and 0.84
- Relative migration ability, mean (FigS10c, relative to DMSO): 0.94
- cell migration (wound healing) (SW480, MAI-516 50 μM): dose not inhibit the migration; also recorded: no apparent impact
